Measurements reported in patent publication US20240336923A1, “DNAZYMES TARGETING CELL WALL SYNTHESIS ENZYMES AND USES THEREOF” (priority 2021, published 2024).
{CholTEG} = cholesterol-triethylene glycol

Legend:
Type in all cases: cell-based
[1] = system: Pseudomonas aeruginosa (MDR-PA, ATCC® BAA-3105™) biofilm; experiment: Biofilm formation assays (crystal violet and CFU); conditions: TSB, 96 wells, DNAzyme 2.5 μM, 16 hours; for biofilm formation (crystal violet): FIG. 4A; for viable cells within the biofilm (CFU): FIG. 4B
Description: FIGS. 4A-B are graphs showing reduction in bacterial density (FIG. 4A) or colony-forming units (FIG. 4B) (vertical axis) in biofilms grown either with or without the indicated DNAzymes (2.5 μM) in 96 wells with tryptic soy broth (TSB) for 16 hours, after which non-adhered cells were removed, and biofilms were washed and stained with 0.1% crystal violet (FIG. 4A) or replating (FIG. 4B). Average and standard mean are depicted by horizontal bars and brackets. Scr is a control scramble DNAzyme (Scr nucleotide sequence is 5′-[…]/3CholTEG/; SEQ ID NO: 44). NT is No Treatment.
Biofilm assays. Bacterial strains were streaked from frozen LB+glycerol stocks onto LB agar plates and incubated for 24 h at 37° C. Single colonies were grown overnight at 37° C. in 3 ml of LB. Cultures were diluted 1:100 in TSB in a 96-well plate, and DNAzymes were added to a final concentration of 2.5 μM. Cultures were incubated at 37° C. without shaking for 16 hours. Non-adherent cells were removed, and biofilms were washed with PBS and either stained with crystal violet (0.1%), or biofilm cells were extracted using mild sonication (2-4 pulses of 5 seconds, amplitude 30%) for CFU determination. CFU was measured using serial dilutions of the bacterial suspensions and spots were plated on LB plates. CFU was determined as above.
To measure the ability of DNAzymes that target a transcript encoding a cell wall biosynthesis enzyme, to affect biofilm formation, bacteria were grown in TSB on plates, under conditions that favor biofilm formation. Representative DNAzymes tested included murG-162, murG-207, and murG-366.

[2] = system: Pseudomonas aeruginosa (MDR-PA, ATCC® BAA-3105™) biofilm; experiment: Scanning electron microscopy of biofilms grown with DNAzymes; conditions: stainless steel mesh, TSB, DNAzyme 1.25 μM twice, 48 hours; FIG. 5C
Description: FIGS. 5A-5C: Biofilm macrostructure and morphology of single bacterial cells are affected by DNAzymes targeting murG. Biofilms were grown on top of dense stainless steel mesh in TSB in 12 well plates with or without indicated DNAzymes (1.25 μM). 24 hours afterwards, an additional dose of DNAzymes was added to treated samples. Following 48 hours of overall inoculation, biofilms were fixated and dehydrated. The mesh with associated biofilms was imaged with scanning electron microscopy (SEM). The results are of a representative field of 3 independent repeats. (FIG. 5A). NT, scr, and murG162 as above) (FIG. 5B) Enlargements of representative zones, enabling detection of single-cell morphologies. (FIG. 5C) Overall measurements of the maximal thickness of dehydrated biofilms. (NT, scr, and murG162 as above)
To determine the effects of the representative DNAzymes on macro- and microstructure of treated biofilms, 3D structures of treated and untreated biofilms were examined using scanning electron microscopy (SEM).
To study the effects of DNAzyme treatment on biofilm structure, 3D topographies of the biofilms were generated to compare multiple areas of the biofilm. The biofilms were dehydrated, resulting in a uniform loss of volume percentage.

[3] = system: Pseudomonas aeruginosa (MDR-PA, ATCC® BAA-3105™) pre-established biofilm; experiment: DNAzyme treatment of pre-established biofilms without or with meropenem (CFU, SEM); conditions: DNAzyme 2.5 μM, 8 hours; for effect on meropenem activity against pre-established biofilms: PBS + 10 μM meropenem, FIG. 6B; for reduction of biofilm biomasses: mature 24 h biofilms, without or with meropenem, FIGS. 6A-6B
Description: FIGS. 6A-6C: DNAzymes can reduce viability and increase antibiotic sensitivity of cells from pre-established biofilms. Biofilms were grown in TSB in 12 well plates. 24 hours later, the medium was replaced with PBS (FIG. 6A) or with PBS+10 μM meropenem (FIG. 6B) in the presence or absence of the indicated DNAzymes, murG-162 or SCR (scramble control), […]. Following 8 hours, the adherent remaining cells were extracted, and the number of CFU was determined. (FIG. 6C) Biofilms were grown as described for FIG. 6B. The mesh with associated biofilms was imaged with SEM.
The effect of DNAzymes targeting murG on pre-established biofilms was studied by comparing the application of PBS, scrambled DNAzyme control (SCR), or indicated DNAzymes (162-murG, 207-murG, and 366-murG) on mature biofilms without or with the beta-lactam meropenem (FIGS. 6A-6B, respectively).
These findings were confirmed by SEM. Biofilms treated with sub-lethal concentrations of meropenem with control SCR DNAzyme were […] and had more texture. […] FIG. 6C presents an example of these findings, wherein SCR DNAzyme treated samples were compared to biofilms treated with murG162+meropenem.

[4] = system: Pseudomonas aeruginosa strain ATCC® BAA-3105™; experiment: Intracellular DNAzyme quantification in bacteria grown in media (qPCR / flow cytometry); conditions: LB + 32 μg/ml meropenem, 1.25 μM DNAzyme, 4 hours
Description: FIGS. 2A-2D. Uptake of fluorescent DNAzyme in media mimicking in vivo conditions, in the presence of subtoxic concentrations of meropenem as judged by flow cytometry. […] FIG. 2B is a graph showing the copy number of fluorescent murG-207 DNAzymes (Dz) per bacterium, as measured by flow cytometry. FIG. 2C is a graph showing uptake of fluorescent murG-207 DNAzyme in bacterial cells in a biofilm. Bacteria were grown under conditions favoring biofilm formation in TSB for 24 hours. Biofilm cells were separated from non-adhered cells, incubated with fluorescent murG-207 DNAzyme for 2 hours, and analyzed by flow cytometry. FIG. 2D is a graph showing uptake of DNAzymes in bacterial colonizing lung tissue samples (mouse lungs from naïve healthy mice). MDR-PA were grown with lung samples in DMEM with meropenem for 24 hours. […] In the histograms shown in FIGS. 2A, 2C, and 2D, arrows indicate which lines represent the basal fluorescence levels of the bacteria, and fluorescence of murG-207 DNAzyme with 3′cholesterol-TEG modification.
Flow cytometry. […] Data was analyzed using Kaluza Analysis 2.1 software using a C6 import module.
Intracellular DNAzyme quantification from bacterial cells. […] For intracellular extraction of the DNAzymes, cells were incubated for 10 minutes at 95° C., and supernatants were collected for quantification of intracellular DNAzymes. […]

Substance | biofilm formation (crystal violet) [1] | viable cells within the biofilm (CFU) [1] | occurrence of areas thicker than 10 μm in dehydrated biofilms [2] | effect on meropenem activity against pre-established biofilms [3] | reduction of biofilm biomasses [3] [log] | average copy number of DNAzymes per cell [4]
5′-ACCACAATACCGAGATCGGTCGTGTCGGCATGA/3CholTEG/ (DNA, 3' {CholTEG}, backbone and methylation of C not given here) [Scr, control scramble DNAzyme, reference compound] | did not show inhibition of biofilm formation | did not show inhibition of biofilm formation or a reduction of viable cells | composed of areas thicker than 10 μm, areas of about 10 μm, and significantly thinner areas | – | – | –
5′-CTTGACCAG ggctagctacaacga GACTTCAGG-Chol-TEG-3′ (DNA CTTGACCAGGGCTAGCTACAACGAGACTTCAGG; DNA, 3' {CholTEG}, backbone and methylation of C not given here) [murG-207, 10-23 DNAzyme targeting murG RNA transcript, cleavage site nt 207, 3′ cholesterol-TEG] | biofilm inhibition | significant reduction of viable cells | – | potentiated the effect of meropenem | ~1 | over 10,000 DNAzymes per cell
5′-GATCAGGTG ggctagctacaacga AACGGCAGG-Chol-TEG-3′ (DNA GATCAGGTGGGCTAGCTACAACGAAACGGCAGG; DNA, 3' {CholTEG}, backbone and methylation of C not given here) [murG-162] | biofilm inhibition | significant reduction of viable cells | significantly reduced | potentiated the effect of meropenem | ~1 | –
5′-GGCGTTCTG ggctagctacaacga TCGTGGATC-Chol-TEG-3′ (DNA GGCGTTCTGGGCTAGCTACAACGATCGTGGATC; DNA, 3' {CholTEG}, backbone and methylation of C not given here) [murG-366, 10-23 DNAzyme targeting murG RNA transcript, cleavage site nt 366, 3′ cholesterol-TEG] | biofilm inhibition | significant reduction of viable cells | – | potentiated the effect of meropenem | ~1 | –
